In patent publication US12521444B2, “Anti-HER2 antibody-drug conjugates and uses thereof” (Fortvita Biologics Limited, priority 2021, dated 2026):

Legend:
SK-BR-3 = experiment: In vitro cytotoxicity assay (CCK-8) in SK-BR-3; assay type: cell-based; conditions: Homo sapiens, toxins (expected metabolites of the ADCs), 120 hours
Procedure: (§1) Dispensed 175 μL cell suspension in 96-well plate at 1500 cells per well and incubate for 24 hours in a humidified incubator (37° C., 5% CO2). […] Added 25 μL various concentrations of compound as a […] solution into the cell culture medium (Fetal bovine serum, Invitrogen) in the plate and incubated for 120 hours in the incubator. Thawed CCK-8 on the bench top or in a 37° C. water bath, added 10 μL of CCK-8 to each well of the incubated plate (be careful not introducing air bubbles into the wells since they would interfere with the O. D. reading) and then further incubated for 1-4 hours in the incubator. Measured the absorbance at 450 nm using a SpectraMax i3× Microplate Reader and calculated the cell inhibition rate. The IC50 curves were generated along with the IC50 values by using GraphPad Prism software.

NCI-N87 = experiment: In vitro cytotoxicity assay (CCK-8) in NCI-N87; assay type: cell-based; conditions: Homo sapiens, toxins (expected metabolites of the ADCs), 120 hours
Procedure: as §1

MDA-MB-468 = experiment: In vitro cytotoxicity assay (CCK-8) in MDA-MB-468; assay type: cell-based; conditions: Homo sapiens, toxins (expected metabolites of the ADCs), 120 hours
Procedure: as §1

JIMT-1 = experiment: cells; assay type: cell-based, human; conditions: for IC50: Homo sapiens, JIMT-1, toxins (expected metabolites of the ADCs), 120 hours
Procedure: as §1

MCF-7 = experiment: In vitro cytotoxicity assay (CCK-8) in MCF-7; assay type: cell-based; conditions: Homo sapiens, MCF7; toxins (expected metabolites of the ADCs), 120 hours
Procedure: as §1

SK-OV-3 = experiment: In vitro cytotoxicity assay (CCK-8) in SK-OV-3; assay type: cell-based; conditions: Homo sapiens, toxins (expected metabolites of the ADCs), 120 hours
Procedure: as §1

OVCAR-3 = experiment: In vitro cytotoxicity assay (CCK-8) in OVCAR-3; assay type: cell-based; conditions: Homo sapiens, toxins (expected metabolites of the ADCs), 120 hours
Procedure: as §1

SMILES | IC50 (SK-BR-3) | IC50 (NCI-N87) | IC50 (MDA-MB-468) | IC50 (JIMT-1) | IC50 (MCF-7) | IC50 (SK-OV-3) | cytotoxic potency relative to DXd (JIMT-1) | IC50 (OVCAR-3)
CCc1c2c(nc3cc(F)c(C)c(CCCCO)c13)-c1cc3c(c(=O)n1C2)COC(=O)[C@]3(O)CC | > 30 nM | > 30 nM | > 30 nM | > 30 nM | – | – | – | –
CC[C@@]1(O)C(=O)OCc2c1cc1n(c2=O)Cc2c-1nc1cc(F)c(C)c3c1c2[C@@H](NC(=O)CO)CC3 [DXd, reference compound] | 1.9 nM | 3.6 nM | – | – | – | – | – | –
CC[C@@]1(O)C(=O)OCc2c1cc1n(c2=O)Cc2cc3c(CCCCO)c(C)c(F)cc3nc2-1 [MB-1, (19S)-19-ethyl-6-fluoro-19-hydroxy-8-(4-hydroxybutyl)-7-methyl-17-oxa-3,13-diazapentacyclo[11.8.0.0^2,11.0^4,9.0^15,20]henicosa-1(21),2,4,6,8,10,15(20)-heptaene-14,18-dione] | 0.77 nM | 1.3 nM | 0.42 nM | 0.78 nM | 0.37 nM | 1 nM | ten folds more potent than DXd | 0.1 nM
